For the series, the target named is T1, AhR (Cavia porcellus, UniProt Q6J287).
T1 sequence (Q6J287 1-846): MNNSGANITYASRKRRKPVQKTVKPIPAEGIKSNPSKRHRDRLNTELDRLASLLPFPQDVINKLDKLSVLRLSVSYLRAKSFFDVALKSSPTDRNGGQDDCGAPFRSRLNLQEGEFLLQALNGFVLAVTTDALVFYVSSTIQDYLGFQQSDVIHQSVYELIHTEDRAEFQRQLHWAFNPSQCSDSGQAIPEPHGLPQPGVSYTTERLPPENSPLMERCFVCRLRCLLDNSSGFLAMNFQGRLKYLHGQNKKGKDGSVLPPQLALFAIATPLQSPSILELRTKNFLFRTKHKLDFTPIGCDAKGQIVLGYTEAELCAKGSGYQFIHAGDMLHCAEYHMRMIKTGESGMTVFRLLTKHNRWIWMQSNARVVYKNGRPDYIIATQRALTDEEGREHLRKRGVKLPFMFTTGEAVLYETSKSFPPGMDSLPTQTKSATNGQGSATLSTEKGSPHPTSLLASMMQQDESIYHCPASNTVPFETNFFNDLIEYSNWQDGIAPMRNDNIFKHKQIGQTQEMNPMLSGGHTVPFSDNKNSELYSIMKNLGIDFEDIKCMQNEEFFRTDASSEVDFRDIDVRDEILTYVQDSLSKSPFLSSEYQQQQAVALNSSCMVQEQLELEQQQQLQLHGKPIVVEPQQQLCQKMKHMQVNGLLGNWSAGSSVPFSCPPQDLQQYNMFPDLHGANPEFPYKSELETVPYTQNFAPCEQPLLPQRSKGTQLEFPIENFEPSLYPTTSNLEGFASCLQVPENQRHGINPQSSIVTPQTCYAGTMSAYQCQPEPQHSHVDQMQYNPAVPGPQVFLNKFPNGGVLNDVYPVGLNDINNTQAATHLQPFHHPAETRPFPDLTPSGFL
Briefly: Receptor capture assay, real-time PCR, rodent cytosol as source of AhR. The class given is biochemical. More on the design: EC50 of dose-response curve; other: TCDD and BNF curves performed simultaneously; slope of dose-response curve. Particulars: TCDD and BNF curves performed simultaneously. The protocol:
A set of calibrators consisting of 5000, 2500, 1250, […], 313, 156, and 78 parts per trillion (ppt or pg/ml) 2,3,7,8-tetrachlorodibenzo-p-dioxin (TCDD) was prepared in methanol. In addition to TCDD a set of calibrators for AhR agonist, beta-naphthoflavone (BNF) was prepared and analyzed in the assay. Separately, 25 ul of 1:50,000 dilution of 10 uM stock nucleic acid-tracer was added per 1 ml of rodent cytosol, which was the source of AhR, and was aliquoted into glass tubes. The standards were diluted 1:20 into 50-100 ul of rodent cytosol, and incubated for 1-2 hr at room temperature to 37° C. Following incubation, 40 to 100 ul of the reaction was transferred to each well of the antibody-coated Capture Strip and incubated on a shaking platform for 30 min to 1 hr at room temperature. The Capture Strips were washed 5 times with Wash Buffer B, and aspirated; optionally soaking wells for 30 sec-5 min with wash buffer during each cycle. Taqman® Universal PCR Master Mix, primers, and Taqman® probe (Applied Biosystems, Calif.) were added, and adhesive cover applied. PCR was performed and analyzed using an ABI PRISM® 7700, using default settings: 50° C., 2 min, 95° C. 10 min, and 40 cycles of [95° C., 15 sec, 60° C., 60 sec]. A threshold cycle (Ct) was determined for each reaction The Ct represents the PCR cycle at which an increase in reporter fluorescence above baseline signal can first be detected.

For the molecule `O=c1cc(-c2ccccc2)oc2ccc3ccccc3c12` [BNF, beta-naphthoflavone], the “slope of dose-response curve” value was −0.7637. Further, under “read-out: EC50 of dose-response curve”, the EC50 was 0.04 nM. In the case of `Clc1cc2c(cc1Cl)Oc1cc(Cl)c(Cl)cc1O2` [TCDD, 2,3,7,8-tetrachlorodibenzo-p-dioxin], the “slope of dose-response curve” value was −1.195.

One may read the EC50 as the concentration needed to bring the measured effect to its halfway point.

Source of the values: patent US20040259096A1, “Receptor capture assay” (priority 2001, published 2004).
